Data as given in article PMC6839174, “Targeting the Formyl Peptide Receptor type 1 to prevent the adhesion of ovarian cancer cells onto mesothelium and subsequent invasion” (Journal of Experimental & Clinical Cancer Research : CR, 2019).
Non-standard residues stand in square brackets, D forms with d. No end group written: not given here. *: point of attachment. Nle = CCCC[C@H](N)C(=O)O; For = O=C*

Key:
SKOV-3 cells [1] = assay: Adhesion of SKOV-3 cells onto extracellular matrix proteins (24-well plates, cell counting); assay type: cell-based, Human; conditions: SKOV-3 pre-incubated with 100 nM peptide 30 min at 37 °C, 2 h; for cell adhesion onto Coll, Fn or Lm after desensitization: collagen, fibronectin, laminin; for cell adhesion onto Vn after desensitization: vitronectin, means ± SD of three independent experiments
Description: Adhesion assays were performed using 24 multi-well plates coated with 1% BSA, 5 μg mL vitronectin (Vn), 5 μg mL fibronectin (Fn), 5 μg mL laminin (Lm) or 15 μg mL collagen (Coll) diluted in serum-free medium. Sub-confluent cells were harvested by a mild trypsinization, incubated with 10% FBS / DMEM for 1 h at 37 °C, 5% CO2, acid treated with a buffer containing 50 mM glycin-HC1, 0.1 M NaCl, pH 3 for 4 min at 22 °C, to remove receptor-bound ligands, and counted. Viable cells (2 × 10^5 cells per well) were plated in serum-free medium, in the absence or presence of 2 μg/mL R3 mAb recognizing the DI uPAR domain, 2 μg/mL399 anti-uPAR (American Diagnostica), 2 μg/mL anti-uPAR84-95 (PRIMM), 2 μg/mL anti-α-tubulin (Cell Signaling) Abs or 10 nM RI-3, and allowed to adhere for 2 h at 37 °C, 5% CO2. […] At the end of the assay, adherent cells were removed with 0.05% trypsin, and counted. The number of adherent cells was expressed as a percentage of the basal cell adhesion (CTRL). The experiments were performed at least three times in triplicate.

SKOV-3 cells [2] = assay: Adhesion kinetic of SKOV-3 cells onto Vn monitored in real time (xCELLigence); assay type: cell-based, Human; conditions: SKOV-3 pre-exposed to 100 nM peptide, 2 h, cell index, quadruplicate representative of 3 replicates
Description: This assay was performed using E-16-well plates and the xCELLigence Real Time Cell Analysis technology. Bottom wells were coated with serum-free medium, 5 μg mL Vn, 5 μg mL Fn, 5 μg mL Lm or 15 μg mL Coll diluted in serum-free medium prior to seeding cells (1 × 10^4 cells/well) suspended in serum-free medium. Cells that adhere to the bottom of plates cause impedance changes which are proportional to the number of cells. The impedance value of each well was automatically monitored in real-time for at least 2 h and expressed as a cell index value. The experiments were performed three times in quadruplicate.

FPR1 [3] = assay: Ligand binding assay with FITC-RI-3 on primary EOC cells; parameters: species or system human; conditions: for prevention of FITC-RI-3 binding by unlabeled peptide: primary EOC cells, 100 nM peptide pre-incubated 60 min at 4 °C, then 10 nM FITC-RI-3 60 min at 4 °C, three experiments
Description: EOC cells were pre-incubated with diluents or the indicated unlabeled peptides for 60 min at 4 °C (to avoid internalization), extensively rinsed with phosphate buffer saline (PBS), exposed to 10 nM FITC-RI-3 diluted in PBS, for additional 60 min at 4 °C and again rinsed with PBS. Quantification of cell associated fluorescence was assessed by reading cells with the fluorescence plate reader Victor 3. The experiments were performed three times in duplicate.

FPR1 [4] = conditions: 100 nM peptide, 30 min at 37 °C; ref [37], [38]; cited from earlier work
EOC cells = assay: EOC cell adhesion to and crossing of mesothelial cell monolayers (summary statement); assay type: cell-based, human; conditions: EOC cells exposed to RI-3 or desensitized with an excess of SRSRY
Description: HPMCs (1 × 10^5 cells/well) suspended in growth medium, were seeded in 24-well plates and allowed to adhere for about 20 h until they form a confluent monolayer, prior to seeding GFP-tagged EOC cells suspended in growth medium plus diluents or 10 nM RI-3. At the indicated times, plates were accurately washed with PBS and cell-associated fluorescence was assessed by a fluorescence plate reader a fluorescence plate reader (Victor 3, Perkin Elmer), using 485 nm excitation and 535 nm emission filters. The experiments were performed three times in triplicate.
HPMCs (5 × 10^3 cells/well) suspended in growth medium, were seeded in E-16-well plates and allow to adhere for 18–20 h until they form a confluent monolayer, prior to seeding EOC cells (2 × 10^4 cells/well) in growth medium plus/minus 10 nM RI-3. When HPMCs are challenged with invading cells, there is a drop in electrical resistance within 2–4 h which is monitored in real-time as the Cell Index changes due to the rupture of mesothelium. The experiments were performed three times in quadruplicate.

[5] = system: cell migration and ECM attachment; conditions: independently of the uPA catalytic activity; ref [14], [24]–[26]; cited from earlier work
Source text: Ovarian cancer cells detach from the primary tumor and float in the ascitic fluid as single cells or multicellular, chemo-resistant spheroids. Then, floating cancer cells must resist anoikis triggered by lack of attachment to the mesothelium to evade clearance through the peritoneal lymphatics.

vitronectin receptor = system: vitronectin receptor; parameters: method as in PMID 15866865, PMID 20880257; conditions: inside-out mechanism involving PKC, AKT and MAPK; ref [26], [28]; cited from earlier work
FPR1 [6] = assay: Agonist-dependent FPR1 internalization in EOC cells (confocal microscopy); assay type: cell-based, human; conditions: primary EOC cells, 10 nM fluorescent peptide, 30 min at 37 °C
Description: Cells (2 × 10^4/sample) were seeded on glass coverslips and cultured for 24 h in growth medium. Then, slides were washed with PBS, fixed with 2.5% formaldehyde in PBS for 10 min at 4 °C and incubated for 1 h at 4 °C with 2 μg/mL R4 anti-uPAR mAb or 1:100 rabbit anti-FPR1 Ab (#113531Ab, Abcam). Then, 1:700 goat Alexa Fluor 488 anti-rabbit IgG, or rabbit Alexa Fluor 488-conjugated F(ab’)2 fragment of anti-mouse IgG (Molecular Probes) were applied to slides at 23 °C for 40 min. Nuclear staining was performed with 4-6-diamidino-2-phenylindole dye (DAPI). To analyze agonist-dependent FPR1 internalization, cells grown on glass slides were exposed to 10 nM FITC-fMLF or 10 nM FITC-RI-3 diluted in serum-free DMEM for 30 min at 37 °C as described. After extensive washing with PBS, coverslips were mounted using 20% (w/v) mowiol, visualized with the 510 META-LSM confocal microscope (Carl Zeiss).

cell migration = conditions: FITC-RI-3, compared with non-fluorescent peptide; ref [38]; cited from earlier work
Source text: In order to obtain primary cultures of EOC cells, representative fragments of tissue samples were fragmented and cells recovered, as described in the Methods. By enzymatic digestion of a HGSC tissue sample (patient #5), a primary cell culture expressing high levels of both uPAR and FPR1 on cell surface as shown by IHC, was obtained (Figs. 4 and 5a). Subsequent sub-cloning of isolated cell clusters (Fig. 5b) followed by five passages allowed us to obtain an adherent, homogeneous, CD326 positive cell population. These EOC cells express a considerable amount of both uPAR and FPR1 as shown by West ...

With “N-Formyl-L-methionyl-L-leucyl-L-phenylalanine [fMLF]” the “cell adhesion onto Coll, Fn or Lm after desensitization” value (SKOV-3 cells [1]) was “not onto Coll, Fn or Lm”, the “cell adhesion onto Vn after desensitization” value (SKOV-3 cells [1]) was “lose the ability to adhere onto Vn” and the “adhesion onto Vn in real time after desensitization” value (from here on “adhesion onto Vn in real time”) (SKOV-3 cells [2]) was “abrogates cell capability to adhere onto Vn”. The “prevention of FITC-RI-3 binding by unlabeled peptide” value (FPR1 [3]) was “prevented” and the “availability of FPR1 on cell surface after desensitization” value (FPR1 [4]) was “unavailability of FPR1 on cell surface”.

With “Ser-Arg-Ser-Arg-Tyr [SRSRY, synthetic shorter pentapeptide uPAR88–92]” the “cell adhesion onto Coll, Fn or Lm after desensitization” value (SKOV-3 cells [1]) was “not onto Coll, Fn or Lm”, the “cell adhesion onto Vn after desensitization” value (SKOV-3 cells [1]) was “lose the ability to adhere onto Vn” and the “adhesion onto Vn in real time” value (SKOV-3 cells [2]) was “abrogates cell capability to adhere onto Vn”. For the same substance, the “prevention of FITC-RI-3 binding by unlabeled peptide” value (FPR1 [3]) was “prevented”, the “ability to cross mesothelial cell monolayers (abstract)” value (EOC cells) was “losing the ability to cross them” and the “regulation of cell migration and ECM attachment” value [5] was “potent regulators of cell migration and ECM attachment”. For the same substance, the “FPR1 interaction activating the vitronectin receptor” value (vitronectin receptor) was “internalizes and activates the vitronectin receptor” and the “availability of FPR1 on cell surface after desensitization” value (FPR1 [4]) was “unavailability of FPR1 on cell surface”.

In the case of “For-[Nle]LF[Nle]YK [FITC-fMLF, fluorescein conjugate hexapeptide Formyl-Nle-Leu-Phe-Nle-Tyr-Lys, reference compound]”, the FPR1 internalization (FPR1 [6]) is reported as “caused FPR1 internalization”.

For “uPAR84–95: The domain boundary between DI-DII (uPAR84–95 sequence) (AVTYSRSRYLEC; UniProt Q03405 106-117, looked up, fragment)”, the “regulation of cell migration and ECM attachment” value [5] is given as “potent regulators of cell migration and ECM attachment” and the “FPR1 interaction activating the vitronectin receptor” value (vitronectin receptor) is given as “internalizes and activates the vitronectin receptor”.

In the case of ARARY [control peptide ARARY], the “adhesion onto Vn in real time” value (SKOV-3 cells [2]) is reported as “ineffective”.

For “Ac-(D)-Tyr-(D)-Arg-Aib-(D)-Arg-Ahx-Lys (N^ɛ-FITC)-NH2 [FITC-RI-3, fluorescein-conjugate of RI-3]”, the “binding of FITC-RI-3 to EOC cell surface” value (FPR1 [3]; primary EOC cells (patient #5), 10 nM FITC-RI-3 in PBS, 60 min at 4 °C, fluorescence) is given as “specific, saturable RI-3 uptake on EOC cell surface”, the FPR1 internalization (FPR1 [6]) is given as “little or no internalization” and the “FPR1 binding and inhibition of cell migration” value (cell migration) is given as “binding FPR1 and inhibiting cell migration like the non-fluorescent peptide”.
